{"source": "paper PMC4671658", "about": "“Release of 50 new, drug-like compounds and their computational target predictions for open source anti-tubercular drug discovery” (PLoS ONE, 2015)", "test_system": "clinical isolate of M.tuberculosis resistant to isoniazid"}
{"smiles": "O=C(NCc1ccco1)N1CCN(Cc2ccc(Cl)s2)CC1", "note": "[TCMDC-143653]", "values": [{"measurement": "MIC against clinical isolate resistant to isoniazid", "result": 1.6, "unit": "µM"}]}
